The values below come from patent US9115143B2, “Substituted indole derivatives as gamma secretase modulators” (Janssen Pharmaceuticals, Inc., priority 2011, dated 2015).

One assay has as its system Aβ42. Kind of assay: Screening for γ-secretase-modulating activity: Aβ42 in supernatant of SKNBE2 cells carrying hAPP 695 wild type (Alphalisa). It is filed as cell-based, human. The settings on record: overnight incubation, Alphalisa on supernatant. Summed up:
(§1)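 Secreted Aβ42 (C-terminal/N-terminal antibody pair) and Aβtotal (N-terminal/mid-region pair) were quantified by AlphaLISA after overnight compound exposure of wild-type hAPP 695 SKNBE2 cells at 37 °C. Values expressed relative to compound-free maximum, with IC50 from nonlinear 4-parameter regression.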

For a further assay, the system named is Aβtotal. In words: Screening for γ-secretase-modulating activity: Aβtotal in supernatant of SKNBE2 cells carrying hAPP 695 wild type (Alphalisa). Type of assay: cell-based, human. The settings on record: overnight incubation, Alphalisa on supernatant. Summed up: as §1
Another assay concerns Aβ38. Kind of assay: In vivo efficacy B-2a: brain soluble Aβ38 in non-transgenic rodents, ELISA. Details: species or system mouse. To be noted: dose 30 mg/kg oral dosing, brain soluble fraction, untreated animals (Ctrl) set at 100; for response vs control in vivo at 30 mg/kg: Mus musculus, po, read-out: Aβ38 (% vs Ctrl)_Mean. From the text: Aβ38 increasing agents can be administered in any standard form using any standard method. For example, but not limited to, Aβ38 increasing agents can be in the form of liquid, tablets or capsules that are taken orally or by injection.
To determine whether acute administration of an Aβ38 increasing agents would increase Aβ38 levels in vivo, non-transgenic rodents, e.g. mice or rats were used. Animals treated with the Aβ38 increasing agents were examined and compared to those untreated or treated with vehicle and brain levels of soluble Aβ38 and total Aβ were quantitated by standard techniques, for example, using ELISA. Treatment periods varied from hours (h) to days and were adjusted based on the results of the Aβ38 increase once a time course of onset of effect could be established.
A typical protocol for measuring Aβ38 increase in vivo is shown but it is only one of many variations that could be used to optimize the levels of detectable Aβ. For example, Aβ38 increasing agents were formulated in 20% of Captisol® (a sulfobutyl ether of β-cyclodextrin) in water or 20% hydroxypropyl β cyclodextrin. The Aβ38 increasing agents were administered as a single oral dose or by any acceptable route of administration to overnight fasted animals. After 4 h, the animals were sacrificed and Aβ38 levels were analysed.
Blood was collected by decapitation and exsanguinations in EDTA-treated collection tubes. Blood was centrifuged at 1900 g for 10 minutes (min) at 4° C. and the plasma recovered and flash frozen for later analysis. The brain was removed from the cranium and hindbrain. The cerebellum was removed and the left and right hemisphere were separated. The left hemisphere was stored at −18° C. for quantitative analysis of test compound levels. The right hemisphere was rinsed with phosphate-buffered saline (PBS) buffer and immediately frozen on dry ice and stored at −80° C. until homogenization for biochemical assays.
Mouse brains from non-transgenic animals were resuspended in 8 volumes of 0.4% DEA (diethylamine)/50 mM NaCl containing protease inhibitors (Roche-11873580001 or 04693159001) per gram of tissue, e.g. for 0.158 g brain, add 1.264 mL of 0.4% DEA. All samples were homogenized in the FastPrep-24 system (MP Biomedicals) using lysing matrix D (MPBio #6913-100) at 6 m/s for 20 seconds. Homogenates were centrifuged at 20800×g for 5 min and supernatants collected. Supernatants were centrifuged at 221.300×g for 50 min. The resulting high speed supernatants were then transferred to fresh eppendorf tubes. Nine parts of supernatant were neutralized with 1 part 0.5 M Tris-HCl pH 6.8 and used to quantify Aβtotal and Aβ38.
To quantify the amount of Aβtotal and Aβ38 in the soluble fraction of the brain homogenates, Enzyme-Linked-Immunosorbent-Assays were used. Briefly, the standards (a dilution of synthetic Aβ1-40 and Aβ1-38, ANASPEC) were prepared in 1.5 mL Eppendorf tube in Ultraculture, with final concentrations ranging from 10000 to 0.3 pg/mL. The samples and standards were co-incubated with HRPO-labelled N-terminal antibody for Aβ38 detection and with the biotinylated mid-domain antibody 4G8 for Aβtotal detection. 50 μl of conjugate/sample or conjugate/standards mixtures were then added to the antibody-coated plate (the capture antibodies selectively recognize the C-terminal end of Aβ38, antibody J&JPRD/Aβ38/5, for Aβ38 detection and the N-terminus of Aβ, antibody JRF/rAβ/2, for Aβtotal detection). The plate was allowed to incubate overnight at 4° C. in order to allow formation of the antibody-amyloid complex. Following this incubation and subsequent wash steps the ELISA for Aβ38 quantification was finished by addition of Quanta Blu fluorogenic peroxidase substrate according to the manufacturer's instructions (Pierce Corp., Rockford, Ill.). A reading was performed after 10 to 15 min (excitation 320 nm/emission 420 nm). […]

Setting [1] is: SKNBE2 human neuroblastoma cells carrying hAPP 695 wild type.
Setting [2] is: Homo sapiens, SKNBE2, SKNBE2 human neuroblastoma cells carrying hAPP 695 wild type.

Where only a bound is given, the exact number is not on record here.

Regarding `COc1c(C#N)ccc2[nH]c(-c3nc4n(n3)CCOC4c3ccc(F)cc3C)cc12` (stereo not drawn) [Compound 111, 2-[8-(4-fluoro-2-methylphenyl)-5,6-dihydro-8H-[1,2,4]triazolo[5,1-c][1,4]oxazin-2-yl]-4-methoxy-1H-indole-5-carbonitrile], the IC50 in the assay on Aβ42 (setting [1]) was 0.093 µM; in the assay on Aβtotal (setting [2]) it was > 10 µM. Moreover, the response vs control in vivo at 30 mg/kg in the assay on Aβ38 came to 107%.
Take `N#Cc1ccc2[nH]c(-c3cn4c(n3)C(c3ccccc3Cl)CCC4)cc2c1` (stereo not drawn) [Compound 16, 2-[8-(2-chlorophenyl)-5,6,7,8-tetrahydroimidazo[1,2-a]pyridin-2-yl]-1H-indole-5-carbonitrile]: the values for the IC50 with Aβ42 (setting [2]) and in the assay on Aβtotal (setting [2]) were 0.112 µM and > 10 µM, respectively. The response vs control in vivo at 30 mg/kg in the assay with Aβ38 worked out at 120%.
In the case of `Cc1ccccc1C1CCCn2nc(-c3cc4cc(C#N)ccc4[nH]3)nc21` (stereo not drawn) [Compound 13, 2-[5,6,7,8-tetrahydro-8-(2-methylphenyl)[1,2,4]triazolo[1,5-a]pyridin-2-yl]-1H-indole-5-carbonitrile], the IC50 was 0.072 µM with Aβ42 (setting [1]) and > 10 µM in the assay with Aβtotal (setting [1]). Moreover, the response vs control in vivo at 30 mg/kg in the assay on Aβ38 was 116%.
Take `Cc1cn(-c2ccc3[nH]c(-c4nc5n(n4)CCCC5c4ccc(F)cc4C)cc3n2)cn1` (stereo not drawn) [Compound 65, 8-(4-fluoro-2-methylphenyl)-5,6,7,8-tetrahydro-2-[5-(4-methyl-1H-imidazol-1-yl)-1H-pyrrolo[3,2-b]pyridin-2-yl]-[1,2,4]triazolo[1,5-a]pyridine]: the IC50 in the assay with Aβ42 (setting [1]) was determined as 0.046 µM; in the assay with Aβtotal (setting [2]), 7.24 µM. For the same molecule, in the assay with Aβ38, the response vs control in vivo at 30 mg/kg is 101%.
Consider `Cc1cc(F)ccc1C1CCCn2nc(-c3[nH]c4ccc(C#N)cc4c3F)nc21` (single isomer, unassigned) [Compound 182, 3-fluoro-2-[8-(4-fluoro-2-methylphenyl)-5,6,7,8-tetrahydro[1,2,4]triazolo[1,5-a]pyridin-2-yl]-1H-indole-5-carbonitrile], for which the figures for the IC50 with Aβ42 (setting [1]) and in the assay with Aβtotal (setting [1]) were 0.117 µM and > 10 µM, respectively. The response vs control in vivo at 30 mg/kg in the assay with Aβ38 amounted to 132%.
In the case of `Cc1cc(F)ccc1C1CCCn2cc(-c3cc4cc(C#N)ccc4[nH]3)nc21` (stereo not drawn) [Compound 64, 2-[8-(4-fluoro-2-methylphenyl)-5,6,7,8-tetrahydroimidazo[1,2-a]pyridin-2-yl]-1H-indole-5-carbonitrile], the IC50 was 0.068 µM in the assay with Aβ42 (setting [1]) and > 10 µM in the assay on Aβtotal (setting [1]). Besides, the “Aβ38 (% vs Ctrl)_Mean” value in the assay with Aβ38 (30 mg/kg) is reported as 122 % vs Ctrl.
`COc1c(C#N)ccc2[nH]c(-c3nc4n(n3)CCCC4c3ccccc3C(F)(F)F)cc12` (stereo not drawn) [Compound 7, 4-methoxy-2-[5,6,7,8-tetrahydro-8-[2-(trifluoromethyl)phenyl][1,2,4]triazolo[1,5-a]pyridin-2-yl]-1H-indole-5-carbonitrile]: the 50% inhibitory concentration (IC50) was 0.035 µM in the assay with Aβ42 (setting [2]) and > 10 µM with Aβtotal (setting [2]). The response vs control in vivo at 30 mg/kg with Aβ38 was 120%.
The corresponding values for `COc1c(C#N)ccc2[nH]c(-c3nc4n(n3)CCCC4c3ccc(F)cc3C)cc12` (stereo not drawn) [Compound 59, 2-[8-(4-fluoro-2-methylphenyl)-5,6,7,8-tetrahydro[1,2,4]triazolo[1,5-a]pyridin-2-yl]-4-methoxy-1H-indole-5-carbonitrile] are 0.025 µM, 3.71 µM and 91%.
Take `Cc1cn(-c2ccc3[nH]c(-c4nc5n(n4)CCCC5c4ccc(F)cc4C)cc3c2)cn1` (single isomer, unassigned) [Compound 77, 8-(4-fluoro-2-methylphenyl)-5,6,7,8-tetrahydro-2-[5-(4-methyl-1H-imidazol-1-yl)-1H-indol-2-yl]-[1,2,4]triazolo[1,5-a]pyridine]: the IC50 is 0.024 µM in the assay on Aβ42 (setting [1]) and > 10 µM in the assay on Aβtotal (setting [1]). Further, the response vs control in vivo at 30 mg/kg with Aβ38 was 168%.
Take `COc1c(C#N)ccc2[nH]c(-c3cn4c(n3)C(c3ccc(F)cc3C)CCC4)cc12` (stereo not drawn) [Compound 74, 2-[8-(4-fluoro-2-methylphenyl)-5,6,7,8-tetrahydroimidazo[1,2-a]pyridin-2-yl]-4-methoxy-1H-indole-5-carbonitrile]: the IC50 in the assay with Aβ42 (setting [2]) is 0.112 µM; in the assay with Aβtotal (setting [2]), > 10 µM. For the same molecule, the response vs control in vivo at 30 mg/kg with Aβ38 came to 117%.
For `Cc1cn(-c2ccc3[nH]c(-c4nc5n(n4)CCOC5c4ccc(F)cc4C)cc3c2)cn1` (stereo not drawn) [Compound 39, 8-(4-fluoro-2-methylphenyl)-5,6-dihydro-2-[5-(4-methyl-1H-imidazol-1-yl)-1H-indo-2-yl]-8H-[1,2,4]triazolo[5,1-c][1,4]oxazine], the IC50 came to 0.038 µM in the assay with Aβ42 (setting [1]) and 0.214 µM in the assay on Aβtotal (setting [1]). In addition, in the assay with Aβ38, the “Aβ38 (% vs Ctrl)_Mean” value was 132 % vs Ctrl.
Turning to `Cc1cn(-c2cc3cc(-c4nc5n(n4)CCCC5c4ccc(F)cc4C)[nH]c3cn2)cn1` (stereo not drawn) [Compound 71, 8-(4-fluoro-2-methylphenyl)-5,6,7,8-tetrahydro-2-[5-(4-methyl-1H-imidazol-1-yl)-1H-pyrrolo[2,3-c]pyridin-2-yl]-[1,2,4]triazolo[1,5-a]pyridine], the values for the half-maximal inhibitory concentration (IC50) in the assay with Aβ42 (setting [2]) and in the assay on Aβtotal (setting [2]) were 0.065 µM and > 10 µM, respectively. Further, in the assay on Aβ38, the response vs control in vivo at 30 mg/kg turned out to be 115%.
On to `Cc1cc(F)ccc1C1OCCn2cc(-c3cc4nc(-c5cnn(C)c5)ccc4[nH]3)nc21` (single isomer, unassigned) [Compound 102, 8-(4-fluoro-2-methylphenyl)-5,6-dihydro-2-[5-(1-methyl-1H-pyrazol-4-yl)-1H-pyrrolo[3,2-b]pyridin-2-yl]-8H-imidazo[2,1-c][1,4]oxazine], for which the IC50 with Aβ42 (setting [1]) was 0.089 µM; with Aβtotal (setting [1]), > 10 µM. In the assay on Aβ38, the response vs control in vivo at 30 mg/kg is 82%.
As to `Cc1cc(F)ccc1C1CCCn2nc(-c3cc4cc(C#N)ccc4[nH]3)nc21` (stereo not drawn) [Compound 10, 2-[8-(4-fluoro-2-methylphenyl)-5,6,7,8-tetrahydro[1,2,4]triazolo[1,5-a]pyridin-2-yl]-1H-indole-5-carbonitrile], the IC50 with Aβ42 (setting [1]) was 0.102 µM; in the assay with Aβtotal (setting [1]), > 10 µM. Besides, in the assay on Aβ38 (30 mg/kg), the “Aβ38 (% vs Ctrl)_Mean” value is listed as 115 % vs Ctrl.
On to `COc1c(C#N)ccc2[nH]c(-c3nc4n(n3)CCOC4c3c(F)cccc3Cl)cc12` (single isomer, unassigned) [Compound 117, 2-[8-(2-chloro-6-fluorophenyl)-5,6-dihydro-8H-[1,2,4]triazolo[5,1-c][1,4]oxazin-2-yl]-4-methoxy-1H-indole-5-carbonitrile], for which the figures for the IC50 with Aβ42 (setting [1]) and with Aβtotal (setting [2]) were 0.037 µM and > 10 µM, respectively. Further, the response vs control in vivo at 30 mg/kg in the assay on Aβ38 is 106%.
In the case of `COc1c(-c2cnn(C)c2)ccc2[nH]c(-c3cn4c(n3)C(c3ccc(F)cc3C)OCC4)cc12` (stereo not drawn) [Compound 96, 8-(4-fluoro-2-methylphenyl)-5,6-dihydro-2-[4-methoxy-5-(1-methyl-1H-pyrazol-4-yl)-1H-indol-2-yl]-8H-imidazo[2,1-c][1,4]oxazine], the IC50 in the assay on Aβ42 (setting [2]) is 0.074 µM; in the assay with Aβtotal (setting [2]), > 10 µM. The response vs control in vivo at 30 mg/kg in the assay on Aβ38 was 124%.
